Laboratory results taken from the CheMixHub ionic liquid set.

Assay: xn = mol fraction of the nth substance listed

O=C1CCCO1 + C[NH+](C)C.O=S(=O)([N-]S(=O)(=O)C(F)(F)F)C(F)(F)F
Conditions | viscosity [mPa·s]
333.15 K, 101 kPa, x1 = 1 | 1.08

CCCC[n+]1ccn(C)c1.COP(=O)([O-])OC + CC(=O)O.CC(=O)[O-].CC[NH+](CC)CCO
101 kPa, x2 = 0
Conditions | viscosity [mPa·s]
283.15 K | 2142
298.15 K | 609
353.15 K | 36.02
358.15 K | 30.38

O=C(O)CO + CC[N+](CC)(CC)CC.[Cl-]
101 kPa, x1 = 0.6667
Conditions | viscosity [mPa·s]
303.15 K | 268
323.15 K | 87
353.15 K | 27

CCCCCC[n+]1ccc(C)cc1.[Br-] + CO/N=C(\C(=O)N[C@@H]1C(=O)N2C(C(=O)[O-])=C(CSc3nc(=O)c(=O)[n-]n3C)CS[C@H]12)c1csc(N)n1.[Na+].[Na+] + O
viscosity [mPa·s], 100 kPa
Conditions | 288.15 K | 293.15 K | 298.15 K | 303.15 K | 308.15 K
x2 = 0, x1 = 0.0007045 | 1.172 | 1.028 | 0.913 | 0.817 | 0.738
x2 = 0, x1 = 0.001062 | 1.183 | 1.039 | 0.924 | 0.824 | 0.746
x2 = 0, x1 = 0.001422 | 1.195 | 1.05 | 0.934 | 0.834 | 0.753
x2 = 0.00034, x1 = 0.0007042 | 1.221 | 1.065 | 0.947 | 0.847 | 0.764
x2 = 0.0008651, x1 = 0.0007039 | 1.316 | 1.152 | 1.019 | 0.911 | 0.818
x2 = 0.0008655, x1 = 0.001061 | 1.322 | 1.159 | 1.029 | 0.917 | 0.826
x2 = 0.0008696, x1 = 0.001421 | 1.338 | 1.172 | 1.038 | 0.923 | 0.831
x2 = 0.001399, x1 = 0.0007035 | 1.412 | 1.233 | 1.092 | 0.974 | 0.875
x2 = 0.001401, x1 = 0.00142 | 1.432 | 1.255 | 1.116 | 0.991 | 0.888
x2 = 0.001409, x1 = 0.00106 | 1.418 | 1.244 | 1.1 | 0.98 | 0.881
x2 = 0.001955, x1 = 0.001419 | 1.545 | 1.353 | 1.2 | 1.062 | 0.951
x2 = 0.001966, x1 = 0.0007031 | 1.521 | 1.329 | 1.178 | 1.047 | 0.938
x2 = 0.00197, x1 = 0.00106 | 1.534 | 1.34 | 1.184 | 1.054 | 0.946
x2 = 0.00252, x1 = 0.0007027 | 1.641 | 1.432 | 1.264 | 1.125 | 1.01
x2 = 0.002559, x1 = 0.001419 | 1.685 | 1.47 | 1.302 | 1.143 | 1.03
x2 = 0.003119, x1 = 0.0007023 | 1.784 | 1.555 | 1.369 | 1.216 | 1.088
x2 = 0.003144, x1 = 0.001058 | 1.807 | 1.572 | 1.398 | 1.231 | 1.098
x2 = 0.003161, x1 = 0.001418 | 1.832 | 1.592 | 1.412 | 1.242 | 1.112
x2 = 0.003971, x1 = 0.0007017 | 2.011 | 1.751 | 1.539 | 1.363 | 1.216
x2 = 0.003978, x1 = 0.001417 | 2.065 | 1.788 | 1.585 | 1.387 | 1.243
x2 = 0.004835, x1 = 0.0007011 | 2.288 | 1.987 | 1.737 | 1.534 | 1.365
x2 = 0.004866, x1 = 0.001415 | 2.36 | 2.033 | 1.798 | 1.567 | 1.394
x2 = 0.00487, x1 = 0.001057 | 2.329 | 2.011 | 1.772 | 1.556 | 1.379
x2 = 0.005535, x1 = 0.0007006 | 2.55 | 2.197 | 1.919 | 1.69 | 1.499
x2 = 0.005568, x1 = 0.001056 | 2.58 | 2.228 | 1.956 | 1.716 | 1.513
x2 = 0.00558, x1 = 0.001414 | 2.61 | 2.251 | 1.984 | 1.726 | 1.534

CCCC[n+]1ccn(C)c1.O=S(=O)([O-])C(F)(F)F + NCCO
Conditions | viscosity [mPa·s]
293.15 K, 101 kPa, x2 = 0.3209 | 52.92

CCCC[n+]1ccn(C)c1.[Cl-] + CO
101 kPa, frequency 0 MHz
Conditions | electrical conductivity [S/m]
293.15 K, x1 = 0.007978 | 0.93
303.15 K, x1 = 0.00449 | 0.66
313.15 K, x1 = 0.002223 | 0.42
313.15 K, x1 = 0.00354 | 0.6
323.15 K, x1 = 0.00449 | 0.83

101 kPa
Conditions | electrical conductivity [S/m] | viscosity [mPa·s]
293.15 K, x2 = 0.5001 | – | 65
293.15 K, x2 = 0.5458 | – | 40.4
298.15 K, x2 = 0.7015 | 2.19 | 7.5
303.15 K, x2 = 0.5594 | – | 27.1
303.15 K, x2 = 0.7001 | – | 6.8
308.15 K, x2 = 0.8999 | – | 1.19
308.15 K, x2 = 0.95 | – | 0.79

O=C([O-])CC(O)(CC(=O)[O-])C(=O)[O-].[Na+].[Na+].[Na+] + CCCCCCCCCCCC[N+](C)(C)C.[Br-] + O
298.15 K, 101 kPa
Conditions | electrical conductivity [S/m]
x1 = 0.0001801, x2 = 6.99e-05 | 0.2684
x1 = 0.0001801, x2 = 7.929e-05 | 0.2719
x1 = 0.0001801, x2 = 8.85e-05 | 0.2754
x1 = 0.0001801, x2 = 9.753e-05 | 0.2789
x1 = 0.0001801, x2 = 0.0001069 | 0.2823
x1 = 0.0001801, x2 = 0.0001161 | 0.2857
x1 = 0.0001801, x2 = 0.0001253 | 0.2892
x1 = 0.0001801, x2 = 0.0001344 | 0.2925
x1 = 0.0001801, x2 = 0.0001434 | 0.2957
x1 = 0.0001801, x2 = 0.0001524 | 0.2987
x1 = 0.0001801, x2 = 0.0001611 | 0.3009
x1 = 0.0001801, x2 = 0.0001696 | 0.3029
x1 = 0.0001801, x2 = 0.0001784 | 0.3047
x1 = 0.0001801, x2 = 0.0001916 | 0.3068
x1 = 0.0001801, x2 = 0.0002048 | 0.3082
x1 = 0.0001801, x2 = 0.0002178 | 0.3097
x1 = 0.0001801, x2 = 0.0002306 | 0.311
x1 = 0.0001801, x2 = 0.0002434 | 0.3121
x1 = 0.0001801, x2 = 0.0002561 | 0.3132
x1 = 0.0001801, x2 = 0.0002685 | 0.3143
x1 = 0.0001801, x2 = 0.000281 | 0.3154
x1 = 0.0001801, x2 = 0.0002933 | 0.3165
x1 = 0.0001801, x2 = 0.0003055 | 0.3176
x1 = 0.0001802, x2 = 0 | 0.2438
x1 = 0.0001802, x2 = 3.07e-06 | 0.2445
x1 = 0.0001802, x2 = 6.32e-06 | 0.2456
x1 = 0.0001802, x2 = 1.391e-05 | 0.2483
x1 = 0.0001802, x2 = 2.348e-05 | 0.2516
x1 = 0.0001802, x2 = 3.251e-05 | 0.2548
x1 = 0.0001802, x2 = 4.154e-05 | 0.258
x1 = 0.0001802, x2 = 5.076e-05 | 0.2614
x1 = 0.0001802, x2 = 6.015e-05 | 0.2648
x1 = 0.001798, x2 = 0.000148 | 1.558
x1 = 0.001798, x2 = 0.0001666 | 1.562
x1 = 0.001798, x2 = 0.0001847 | 1.565
x1 = 0.001798, x2 = 0.0002029 | 1.569
x1 = 0.001798, x2 = 0.0002206 | 1.573
x1 = 0.001798, x2 = 0.0002383 | 1.576
x1 = 0.001798, x2 = 0.0002559 | 1.579
x1 = 0.001798, x2 = 0.000273 | 1.582
x1 = 0.001798, x2 = 0.0002898 | 1.585
x1 = 0.001798, x2 = 0.0003068 | 1.588
x1 = 0.001798, x2 = 0.0003234 | 1.591
x1 = 0.001798, x2 = 0.0003396 | 1.594
x1 = 0.001798, x2 = 0.0003558 | 1.597
x1 = 0.001798, x2 = 0.0003717 | 1.599
x1 = 0.001798, x2 = 0.0003855 | 1.602
x1 = 0.001798, x2 = 0.0004015 | 1.604
x1 = 0.001798, x2 = 0.000417 | 1.607
x1 = 0.001798, x2 = 0.000448 | 1.611
x1 = 0.001799, x2 = 0 | 1.541
x1 = 0.001799, x2 = 6.09e-06 | 1.538
x1 = 0.001799, x2 = 1.458e-05 | 1.538
x1 = 0.001799, x2 = 2.214e-05 | 1.539
x1 = 0.001799, x2 = 2.989e-05 | 1.54
x1 = 0.001799, x2 = 4.188e-05 | 1.542
x1 = 0.001799, x2 = 5.738e-05 | 1.543
x1 = 0.001799, x2 = 7.288e-05 | 1.544
x1 = 0.001799, x2 = 9.225e-05 | 1.547
x1 = 0.001799, x2 = 0.0001101 | 1.55
x1 = 0.001799, x2 = 0.0001291 | 1.554
